{"source": "patent US20220184040A1", "about": "“METHOD OF TREATING MALIGNANT RHABDOID TUMOR OF THE OVARY AND SMALL CELL CANCER OF THE OVARY OF THE HYPERCALCEMIC TYPE” (TRANSLATIONAL DRUG DEVELOPMENT, LLC, priority 2019, published 2022)", "key": {"BIN67": {"test_system": "BIN67", "assay": "CellTiter-Glo cell viability assay, BIN67", "assay_type": "cell-based", "conditions": "Homo sapiens; BIN67, 72 hours treatment", "description": "(§1) Cell viability was measured by the CellTiter -GlO® cell viability assay from Promega (Madison, Wis.). The CellTiter-GlO® Luminescent Cell Viability Assay is a homogeneous method to determine the number of viable cells in culture based on quantitation of the ATP present, which signals the presence of metabolically active cells. Following treatment, CellTiter-GlO® is added to treatment wells and incubated at 37° C. luminescence values were measured at using a Molecular Devices Spectramax microplate reader\n(§2) Cells were grown to 70% confluency, trypsinized, counted, and seeded in 96 well flat-bottom plates at a final concentration of 2.5×10^3-5×10^3 cells/well (Day 0). Cells were allowed to incubate in growth media for 24 hours. Treatment with the test agents or standard agents began on Day 1 and continued for 72 hours. At the 72-hour timepoint, treatment containing media was removed. Viable cell numbers are quantified by the CellTiter-GlO® cell viability assay as described above. […]\n(§3) For single agent and combination studies, data from each experiment was collected and expressed as % Cell Growth using the following calculation: […]\n(§4) Where ftest is the fluorescence of the tested sample, and fvehicle is the fluorescence of the vehicle in which the drug is dissolved. […]"}, "COV434": {"test_system": "COV434", "assay": "CellTiter-Glo cell viability assay, COV434", "assay_type": "cell-based", "conditions": "Homo sapiens", "description": "as §1, §2, §3, §4"}, "SCCOHT-1": {"test_system": "SCCOHT-1", "assay": "CellTiter-Glo cell viability assay, SCCOHT-1", "assay_type": "cell-based", "conditions": "Homo sapiens; SCCOHT-1, 72 hours treatment", "description": "as §1, §2, §3, §4"}, "A204": {"test_system": "A204", "assay": "CellTiter-Glo cell viability assay, A204", "assay_type": "cell-based", "conditions": "Homo sapiens, read-out: anti-proliferative IC50", "description": "as §1, §2, §3, §4"}, "A427": {"test_system": "A427", "assay": "CellTiter-Glo cell viability assay, A427", "assay_type": "cell-based", "conditions": "Homo sapiens, A-427, read-out: anti-proliferative IC50", "description": "as §1, §2, §3, §4"}, "G401": {"test_system": "G401", "assay": "CellTiter-Glo cell viability assay, G401", "assay_type": "cell-based", "conditions": "Homo sapiens, G-401, read-out: anti-proliferative IC50", "description": "as §1, §2, §3, §4"}, "G402": {"test_system": "G402", "assay": "CellTiter-Glo cell viability assay, G402", "assay_type": "cell-based", "conditions": "Homo sapiens, G-402, read-out: anti-proliferative IC50", "description": "as §1, §2, §3, §4"}, "H522": {"test_system": "H522", "assay": "CellTiter-Glo cell viability assay, H522", "assay_type": "cell-based", "conditions": "Homo sapiens, NCI-H522; read-out: anti-proliferative IC50", "description": "as §1, §2, §3, §4"}, "[1]": {"test_system": "SCCOHT cell lines (BIN67, COV434, and SCCOHT-1)", "assay": "Cell proliferation assays, three SCCOHT cell lines", "assay_type": "cell-based", "conditions": "Homo sapiens; range over BIN67, COV434, SCCOHT-1", "description": "as §1, §2, §3, §4"}, "[2]": {"test_system": "Dual SMARCA2 and SMARCA4 deficient cell lines (A204, G401, G402, H522, and A427)", "assay": "Proliferation assays, dual SMARCA2 and SMARCA4 deficient cell lines", "assay_type": "cell-based", "conditions": "range over A204, G401, G402, H522, A427", "description": "as §1, §2, §3, §4"}, "[3]": {"test_system": "SMARCA2 gene expression in BIN-67 cells", "assay": "SMARCA2 gene expression in treated BIN-67 cells", "assay_type": "cell-based, human", "conditions": "in vitro treatment"}, "[4]": {"test_system": "SMARCA2 protein expression in BIN-67 cells", "assay": "SMARCA2 protein expression in treated BIN-67 cells", "assay_type": "cell-based, human", "conditions": "in vitro treatment"}, "[5]": {"test_system": "BIN67 human tumor xenografts", "assay": "SCCOHT xenograft model (BIN-67)", "assay_type": "in vivo, mice", "conditions": "for mean tumor regression: BIN67 xenografts in mice, two weeks post-treatment initiation", "description": "In vivo treatment of tumors in an SCCOHT xenograft model (BIN-67) was evaluated. In vivo xenograft tumors from SCCOHT cell line BIN-67 were dosed with (S)-N-hydroxy-2-(2-(4-methoxyphenyl)butanamido)thiazole-5-carboxamide (i.e., GB-3103) for 60 days."}, "[6]": {"test_system": "G401 human malignant rhabdoid tumor xenografts", "assay": "Malignant rhabdoid tumor xenograft model (G401)", "assay_type": "in vivo, mice", "description": "In vivo treatment of tumors in a malignant rhabdoid tumor xenograft model (G401) was evaluated. In vivo xenograft tumors from MRT line G401 were dosed with (S)-N-hydroxy-2-(2-(4-methoxyphenyl)butanamido)thiazole-5-carboxamide (i.e., GB-3103) for 30 days."}, "CT-26 tumors": {"test_system": "CT-26 tumors", "assay": "Syngeneic CT-26 mouse colon cancer model", "assay_type": "in vivo", "from_the_text": "Given the importance of MHC Class II expression and response to checkpoint inhibitor therapies, we tested the activity of GB-3103 alone and in combination with anti-mPD-1 and anti-mPD-L1 antibodies in a syngeneic CT-26 mouse colon cancer model. […] However, tumor growth resumed on Day 15 and continued to increase until Day 26 (see FIG. 7)."}, "BIN67 cells": {"test_system": "BIN67 cells", "assay": "RNA-Seq analyses of treated BIN67 cells", "assay_type": "cell-based, human"}, "HDAC1": {"target": "HDAC1 (Homo sapiens, UniProt Q13547)", "sequence (Q13547 whole entry, canonical isoform)": "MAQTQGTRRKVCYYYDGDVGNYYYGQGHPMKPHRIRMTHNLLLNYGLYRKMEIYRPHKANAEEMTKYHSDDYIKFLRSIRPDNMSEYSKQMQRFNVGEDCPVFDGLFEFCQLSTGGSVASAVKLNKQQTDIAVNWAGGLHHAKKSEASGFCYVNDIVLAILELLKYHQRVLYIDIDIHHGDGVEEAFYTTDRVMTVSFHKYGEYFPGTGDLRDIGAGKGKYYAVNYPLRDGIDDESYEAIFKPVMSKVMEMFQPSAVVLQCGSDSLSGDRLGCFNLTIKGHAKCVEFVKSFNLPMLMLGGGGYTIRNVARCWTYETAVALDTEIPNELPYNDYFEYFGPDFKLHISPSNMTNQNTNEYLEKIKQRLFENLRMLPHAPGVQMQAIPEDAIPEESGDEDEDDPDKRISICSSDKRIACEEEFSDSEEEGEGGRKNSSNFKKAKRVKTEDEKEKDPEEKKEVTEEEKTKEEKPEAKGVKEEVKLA", "assay": "HDAC isoform inhibition, HDAC1", "assay_type": "biochemical", "from_the_text": "(§5) In contrast to pan-HDAC inhibition, isoform restricted HDAC inhibition revokes immune privilege. HDAC3 has emerged as a key target to enhance immune function: • Decrease in Treg suppressive function • Increase in Natural Killer Cell ligand expression on tumors • Enhance macrophage host defense activity • Upregulation of PD-L1 expression and increased sensitivity to anti-PD1 treatments HDAC6 inhibition has potent immunomodulatory benefits including: • Decrease in expression of the anti-inflammatory cytokine IL-10 • Enhanced expression of MHC class I/II genes and increased expression of known tumor antigens • Decreased immunosuppression and enhanced immune function of melanoma patient T-cells"}, "HDAC2": {"target": "HDAC2 (Homo sapiens, UniProt Q92769)", "assay": "HDAC isoform inhibition, HDAC2", "assay_type": "biochemical", "from_the_text": "as §5"}, "HDAC3": {"target": "HDAC3 (Homo sapiens, UniProt O15379)", "assay": "HDAC isoform inhibition, HDAC3", "assay_type": "biochemical", "from_the_text": "as §5"}, "HDAC4": {"target": "HDAC4 (Homo sapiens, UniProt P56524)", "sequence (P56524 whole entry, canonical isoform)": "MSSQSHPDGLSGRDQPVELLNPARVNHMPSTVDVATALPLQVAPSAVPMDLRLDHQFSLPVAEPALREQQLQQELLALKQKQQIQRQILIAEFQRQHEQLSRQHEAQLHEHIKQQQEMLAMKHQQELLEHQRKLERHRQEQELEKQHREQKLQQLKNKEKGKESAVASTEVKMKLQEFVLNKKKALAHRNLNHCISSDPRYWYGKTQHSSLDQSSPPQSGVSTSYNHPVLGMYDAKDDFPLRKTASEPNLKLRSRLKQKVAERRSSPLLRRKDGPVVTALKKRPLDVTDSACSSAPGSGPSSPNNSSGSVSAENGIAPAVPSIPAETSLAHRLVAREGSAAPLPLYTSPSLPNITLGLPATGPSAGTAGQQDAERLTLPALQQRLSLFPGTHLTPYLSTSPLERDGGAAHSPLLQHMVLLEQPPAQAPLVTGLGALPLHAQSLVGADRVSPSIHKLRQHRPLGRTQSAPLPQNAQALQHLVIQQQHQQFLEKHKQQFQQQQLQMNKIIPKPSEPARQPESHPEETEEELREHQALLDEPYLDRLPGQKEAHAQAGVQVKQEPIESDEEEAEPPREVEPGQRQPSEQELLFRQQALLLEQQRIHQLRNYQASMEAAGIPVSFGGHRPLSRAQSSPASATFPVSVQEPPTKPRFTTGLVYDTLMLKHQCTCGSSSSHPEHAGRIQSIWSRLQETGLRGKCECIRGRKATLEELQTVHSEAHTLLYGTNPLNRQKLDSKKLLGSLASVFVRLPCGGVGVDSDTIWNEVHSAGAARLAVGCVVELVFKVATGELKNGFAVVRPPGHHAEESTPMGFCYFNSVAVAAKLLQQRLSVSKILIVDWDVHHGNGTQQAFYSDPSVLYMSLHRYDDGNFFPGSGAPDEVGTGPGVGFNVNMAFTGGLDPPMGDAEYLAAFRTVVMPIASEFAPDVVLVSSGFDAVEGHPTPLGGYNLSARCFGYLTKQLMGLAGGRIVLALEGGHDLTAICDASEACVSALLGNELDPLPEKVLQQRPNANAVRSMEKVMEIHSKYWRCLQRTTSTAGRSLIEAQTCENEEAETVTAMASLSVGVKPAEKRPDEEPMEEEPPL", "assay": "HDAC isoform inhibition, HDAC4", "assay_type": "biochemical", "from_the_text": "as §5"}, "HDAC5": {"target": "HDAC5 (Homo sapiens, UniProt Q9UQL6)", "assay": "HDAC isoform inhibition, HDAC5", "assay_type": "biochemical", "from_the_text": "as §5"}, "HDAC6": {"target": "HDAC6 (Homo sapiens, UniProt Q9UBN7)", "sequence (Q9UBN7 whole entry, canonical isoform)": "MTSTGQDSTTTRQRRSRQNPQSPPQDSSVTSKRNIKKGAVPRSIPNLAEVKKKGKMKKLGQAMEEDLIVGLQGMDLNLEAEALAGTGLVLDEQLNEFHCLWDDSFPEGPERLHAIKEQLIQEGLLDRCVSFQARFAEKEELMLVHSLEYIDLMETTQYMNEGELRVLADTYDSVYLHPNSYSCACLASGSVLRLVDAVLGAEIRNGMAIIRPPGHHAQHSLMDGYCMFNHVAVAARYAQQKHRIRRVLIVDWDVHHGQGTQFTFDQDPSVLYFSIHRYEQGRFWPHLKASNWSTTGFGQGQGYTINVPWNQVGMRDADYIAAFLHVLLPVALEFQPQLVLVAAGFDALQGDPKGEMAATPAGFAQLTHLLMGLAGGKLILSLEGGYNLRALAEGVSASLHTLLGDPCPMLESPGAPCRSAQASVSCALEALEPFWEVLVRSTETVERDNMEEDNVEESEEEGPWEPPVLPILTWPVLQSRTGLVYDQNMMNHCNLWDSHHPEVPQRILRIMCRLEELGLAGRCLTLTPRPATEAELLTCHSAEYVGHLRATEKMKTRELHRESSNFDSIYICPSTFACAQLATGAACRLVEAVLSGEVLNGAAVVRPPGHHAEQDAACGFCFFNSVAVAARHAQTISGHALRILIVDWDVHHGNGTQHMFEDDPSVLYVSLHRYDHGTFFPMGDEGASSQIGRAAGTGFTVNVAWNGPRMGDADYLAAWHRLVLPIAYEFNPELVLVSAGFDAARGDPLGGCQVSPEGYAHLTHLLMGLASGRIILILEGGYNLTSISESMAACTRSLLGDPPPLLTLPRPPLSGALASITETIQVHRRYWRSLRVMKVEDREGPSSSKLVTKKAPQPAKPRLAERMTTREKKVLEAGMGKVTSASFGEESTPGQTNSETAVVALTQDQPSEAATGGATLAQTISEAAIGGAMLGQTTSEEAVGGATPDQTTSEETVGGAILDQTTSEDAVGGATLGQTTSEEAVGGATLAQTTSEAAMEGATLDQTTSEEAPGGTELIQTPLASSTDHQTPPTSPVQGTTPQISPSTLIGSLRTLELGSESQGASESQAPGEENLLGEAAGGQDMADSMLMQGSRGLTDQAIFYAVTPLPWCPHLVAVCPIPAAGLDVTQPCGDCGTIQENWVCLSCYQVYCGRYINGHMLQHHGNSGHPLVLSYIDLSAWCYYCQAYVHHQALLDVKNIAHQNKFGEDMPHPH", "assay": "HDAC isoform inhibition, HDAC6", "assay_type": "biochemical", "from_the_text": "as §5"}, "HDAC7": {"target": "HDAC7 (Homo sapiens, UniProt Q8WUI4)", "sequence (Q8WUI4 whole entry, canonical isoform)": "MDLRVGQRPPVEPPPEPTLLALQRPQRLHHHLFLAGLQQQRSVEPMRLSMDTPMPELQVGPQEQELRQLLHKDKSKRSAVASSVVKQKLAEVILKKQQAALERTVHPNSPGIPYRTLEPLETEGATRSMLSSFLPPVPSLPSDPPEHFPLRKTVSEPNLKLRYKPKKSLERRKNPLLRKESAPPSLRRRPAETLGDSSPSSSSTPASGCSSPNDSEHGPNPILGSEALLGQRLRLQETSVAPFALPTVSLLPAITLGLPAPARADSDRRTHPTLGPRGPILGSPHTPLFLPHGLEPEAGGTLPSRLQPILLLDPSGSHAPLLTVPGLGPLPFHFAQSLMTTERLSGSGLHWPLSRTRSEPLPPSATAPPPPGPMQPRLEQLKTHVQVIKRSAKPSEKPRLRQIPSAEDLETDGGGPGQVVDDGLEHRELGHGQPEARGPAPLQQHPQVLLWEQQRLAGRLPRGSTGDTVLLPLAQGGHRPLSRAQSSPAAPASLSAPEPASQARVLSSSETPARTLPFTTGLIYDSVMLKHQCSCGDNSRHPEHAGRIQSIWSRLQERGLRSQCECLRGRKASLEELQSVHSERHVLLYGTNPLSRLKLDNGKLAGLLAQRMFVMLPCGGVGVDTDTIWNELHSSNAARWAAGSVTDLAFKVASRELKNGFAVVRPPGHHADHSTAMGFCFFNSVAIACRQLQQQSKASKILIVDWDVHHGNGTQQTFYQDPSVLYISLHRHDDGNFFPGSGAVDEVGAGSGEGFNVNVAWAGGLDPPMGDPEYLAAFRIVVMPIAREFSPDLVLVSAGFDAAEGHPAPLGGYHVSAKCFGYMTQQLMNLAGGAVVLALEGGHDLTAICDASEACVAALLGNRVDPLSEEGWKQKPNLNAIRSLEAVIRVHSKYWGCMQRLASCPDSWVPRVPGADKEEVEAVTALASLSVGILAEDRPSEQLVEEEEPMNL", "assay": "HDAC isoform inhibition, HDAC7", "assay_type": "biochemical", "from_the_text": "as §5"}, "HDAC8": {"target": "HDAC8 (Homo sapiens, UniProt Q9BY41)", "assay": "HDAC isoform inhibition, HDAC8", "assay_type": "biochemical", "from_the_text": "as §5"}, "HDAC9": {"target": "HDAC9 (Homo sapiens, UniProt Q9UKV0)", "assay": "HDAC isoform inhibition, HDAC9", "assay_type": "biochemical", "from_the_text": "as §5"}, "HDAC10": {"target": "HDAC10 (Homo sapiens, UniProt Q969S8)", "sequence (Q969S8 whole entry, canonical isoform)": "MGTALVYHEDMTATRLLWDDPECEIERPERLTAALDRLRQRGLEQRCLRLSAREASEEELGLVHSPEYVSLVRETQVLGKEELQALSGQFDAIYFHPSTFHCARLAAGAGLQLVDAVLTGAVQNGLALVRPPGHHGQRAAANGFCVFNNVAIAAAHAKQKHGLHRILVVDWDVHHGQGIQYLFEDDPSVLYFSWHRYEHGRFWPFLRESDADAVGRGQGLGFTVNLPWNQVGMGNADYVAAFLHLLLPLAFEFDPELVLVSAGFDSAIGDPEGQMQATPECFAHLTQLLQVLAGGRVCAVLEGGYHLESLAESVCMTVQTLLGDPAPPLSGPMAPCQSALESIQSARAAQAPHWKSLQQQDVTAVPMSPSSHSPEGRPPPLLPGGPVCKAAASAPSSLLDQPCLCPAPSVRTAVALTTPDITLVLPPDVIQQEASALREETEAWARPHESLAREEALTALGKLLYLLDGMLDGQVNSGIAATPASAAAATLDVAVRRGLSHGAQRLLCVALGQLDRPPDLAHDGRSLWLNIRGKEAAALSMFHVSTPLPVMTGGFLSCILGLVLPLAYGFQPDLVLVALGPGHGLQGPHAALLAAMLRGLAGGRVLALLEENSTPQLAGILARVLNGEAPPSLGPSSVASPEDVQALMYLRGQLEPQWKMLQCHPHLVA", "assay": "HDAC isoform inhibition, HDAC10", "assay_type": "biochemical", "from_the_text": "as §5"}, "HDAC11": {"target": "HDAC11 (Homo sapiens, UniProt Q96DB2)", "sequence (Q96DB2 whole entry, canonical isoform)": "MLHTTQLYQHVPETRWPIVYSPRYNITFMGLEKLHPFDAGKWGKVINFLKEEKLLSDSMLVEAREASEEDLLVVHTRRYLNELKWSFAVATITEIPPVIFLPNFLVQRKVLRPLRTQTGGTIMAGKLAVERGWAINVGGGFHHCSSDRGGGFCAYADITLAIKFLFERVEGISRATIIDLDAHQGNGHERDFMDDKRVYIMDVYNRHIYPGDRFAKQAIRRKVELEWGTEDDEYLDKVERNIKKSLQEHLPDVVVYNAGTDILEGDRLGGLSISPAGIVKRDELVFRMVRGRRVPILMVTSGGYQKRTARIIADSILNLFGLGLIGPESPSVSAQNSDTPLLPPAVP", "assay": "HDAC isoform inhibition, HDAC11", "assay_type": "biochemical", "from_the_text": "as §5"}}, "note": "Entries after “also recorded” stand apart in the source; their conditions may differ. Where two headings read alike, the source gives them in different places.", "data": [{"compound": "CC[C@H](C(=O)Nc1ncc(C(=O)NO)s1)c1ccc(OC)cc1", "note": "[GB-3103, (S)-N-hydroxy-2-(2-(4-methoxyphenyl)butanamido)thiazol-5-carboxamide]", "values": [{"measurement": "IC50", "setting": "BIN67", "result": 51, "unit": "nM"}, {"measurement": "IC50", "setting": "COV434; COV434, read-out: anti-proliferative IC50", "result": 35, "unit": "nM"}, {"measurement": "IC50", "setting": "COV434; COV434, 72 hours treatment, read-out: IC50", "result": 35, "unit": "nM"}, {"measurement": "IC50", "setting": "SCCOHT-1", "result": 293, "unit": "nM"}, {"measurement": "IC50", "setting": "A204", "result": 95, "unit": "nM"}, {"measurement": "IC50", "setting": "A427", "result": 174, "unit": "nM"}, {"measurement": "IC50", "setting": "G401", "result": 138, "unit": "nM"}, {"measurement": "IC50", "setting": "G402", "result": 71, "unit": "nM"}, {"measurement": "IC50", "setting": "H522", "result": 102, "unit": "nM"}, {"measurement": "IC50", "setting": "[1]", "result": "51 to 293", "unit": "nM"}, {"measurement": "IC50", "setting": "[2]", "result": "50 to 200", "unit": "nM"}, {"measurement": "induction of SMARCA2 gene (mRNA) expression", "setting": "[3]", "result": "concentration and time dependent induction of SMARCA2 gene re-expression; also recorded: potent concentration- and time-dependent induction of SMARCA2 expression at both mRNA and protein levels"}, {"measurement": "induction of SMARCA2 protein expression", "setting": "[4]", "result": "potent concentration- and time-dependent induction of SMARCA2 expression at both mRNA and protein levels"}, {"measurement": "mean tumor regression", "setting": "[5]; 5 mg/kg QD", "result": 26, "unit": "%"}, {"measurement": "mean tumor regression", "setting": "[5]; 10 mg/kg QD", "result": 33, "unit": "%"}, {"measurement": "tumor volume compared to vehicle control tumors", "setting": "[5]; BIN-67 xenograft, dosed for 60 days", "result": "statistically significant decreases in volume"}, {"measurement": "tumor volume compared to vehicle control tumors", "setting": "[6]; G401 xenograft, dosed for 30 days", "result": "statistically significant decreases in volume"}, {"measurement": "tumor growth inhibition (TGI) compared to vehicle control", "setting": "[6]; G401 xenografts in mice, 5 mg/kg, QD, P<0.05", "result": 70, "unit": "%"}, {"measurement": "effect on established tumors", "setting": "CT-26 tumors; CT-26 syngeneic model, combined with anti-mPD-1 antibody", "result": "regression of established CT-26 tumors"}, {"measurement": "effect on established tumors", "setting": "CT-26 tumors; CT-26 syngeneic model, combined with anti-mPD-L1 antibody", "result": "regression of established CT-26 tumors"}, {"measurement": "TGI", "setting": "CT-26 tumors; CT-26 syngeneic model, single agent", "result": 93, "unit": "%"}, {"measurement": "day on which tumor growth resumed", "setting": "CT-26 tumors; CT-26 syngeneic model, single agent, growth continued until Day 26", "result": 15, "unit": "days"}, {"measurement": "tumor memory response", "setting": "CT-26 tumors; alone and in combination with anti-PD-1/anti-PD-L1 checkpoint modulators, mice", "result": "creates a tumor memory response preventing re-growth of tumors"}, {"measurement": "RNA-Seq findings", "setting": "BIN67 cells", "result": "affects DNA replication and mRNA stability as well as inducing the expression of MHC Class II proteins"}, {"measurement": "IC50", "setting": "HDAC1", "result": 1, "unit": "nM"}, {"measurement": "IC50", "setting": "HDAC2", "result": 5.3, "unit": "nM"}, {"measurement": "IC50", "setting": "HDAC3", "result": 0.565, "unit": "nM"}, {"measurement": "IC50", "setting": "HDAC4", "result": 138, "unit": "nM"}, {"measurement": "IC50", "setting": "HDAC5", "result": 73.5, "unit": "nM"}, {"measurement": "IC50", "setting": "HDAC6", "result": 0.706, "unit": "nM"}, {"measurement": "mode of inhibition of HDAC6", "setting": "HDAC6", "result": "irreversible"}, {"measurement": "IC50", "setting": "HDAC7", "result": 34.5, "unit": "nM"}, {"measurement": "IC50", "setting": "HDAC8", "result": 133, "unit": "nM"}, {"measurement": "IC50", "setting": "HDAC9", "result": 187, "unit": "nM"}, {"measurement": "IC50", "setting": "HDAC10", "result": 2.03, "unit": "nM"}, {"measurement": "IC50", "setting": "HDAC11", "result": 5780, "unit": "nM"}]}]}
